Paper PMC10004634 (PLOS ONE, 2023)
Read-outs that look alike come from different tables or passages of the source.

How the values were obtained:
Assay in all cases: biochemical
Parameters in all cases: KINOMEscan scanMAX competition binding, DNA-tagged kinases, qPCR read-out, percent control at 300 nM
[1] = molecular target: T1, ADCK3 (Homo sapiens, UniProt Q8NI60)
T1 construct: gene COQ8A

[2] = molecular target: EGFR(S752-I759del) (Homo sapiens, UniProt P00533, DEL752-759)
[3] = molecular target: LCK (Homo sapiens, UniProt P06239)
[4] = molecular target: CHEK2 (Homo sapiens, UniProt O96017)
[5] = molecular target: CLK1 (Homo sapiens, UniProt P49759)
[6] = molecular target: DDR1 (Homo sapiens, UniProt Q08345)
[7] = molecular target: EPHA7 (Homo sapiens, UniProt Q15375)
EPHA7, sequence (Q15375 whole entry): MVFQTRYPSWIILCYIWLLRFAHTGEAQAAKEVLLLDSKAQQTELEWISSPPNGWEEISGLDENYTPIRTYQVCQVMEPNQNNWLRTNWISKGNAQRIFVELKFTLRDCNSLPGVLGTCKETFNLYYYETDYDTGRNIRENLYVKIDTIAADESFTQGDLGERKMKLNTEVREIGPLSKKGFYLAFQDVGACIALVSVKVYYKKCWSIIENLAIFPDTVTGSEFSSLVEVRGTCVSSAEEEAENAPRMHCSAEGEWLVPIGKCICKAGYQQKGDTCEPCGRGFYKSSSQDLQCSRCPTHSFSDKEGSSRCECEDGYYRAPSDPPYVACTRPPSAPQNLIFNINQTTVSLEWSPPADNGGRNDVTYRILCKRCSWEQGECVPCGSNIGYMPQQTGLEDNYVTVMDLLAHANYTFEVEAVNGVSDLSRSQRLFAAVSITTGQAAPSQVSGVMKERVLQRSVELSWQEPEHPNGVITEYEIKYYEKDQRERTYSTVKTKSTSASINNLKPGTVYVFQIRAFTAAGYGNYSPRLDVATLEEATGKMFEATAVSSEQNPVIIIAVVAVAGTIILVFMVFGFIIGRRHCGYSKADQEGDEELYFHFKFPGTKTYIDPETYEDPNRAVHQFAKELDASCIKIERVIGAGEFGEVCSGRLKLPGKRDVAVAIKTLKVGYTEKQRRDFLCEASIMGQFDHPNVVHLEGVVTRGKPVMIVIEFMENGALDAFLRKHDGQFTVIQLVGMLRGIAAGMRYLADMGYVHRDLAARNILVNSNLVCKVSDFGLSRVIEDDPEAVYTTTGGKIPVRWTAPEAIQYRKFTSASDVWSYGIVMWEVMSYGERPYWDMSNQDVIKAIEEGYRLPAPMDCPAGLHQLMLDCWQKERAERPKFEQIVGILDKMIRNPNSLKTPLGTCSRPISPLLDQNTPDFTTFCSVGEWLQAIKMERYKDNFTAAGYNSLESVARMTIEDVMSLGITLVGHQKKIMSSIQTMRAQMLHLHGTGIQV

[8] = molecular target: EPHB4 (Homo sapiens, UniProt P54760)
[9] = molecular target: T2, ERK2 (Homo sapiens, UniProt P28482)
T2 construct: gene MAPK1

[10] = molecular target: FGFR4 (Homo sapiens, UniProt P22455)
FGFR4, sequence (P22455 whole entry): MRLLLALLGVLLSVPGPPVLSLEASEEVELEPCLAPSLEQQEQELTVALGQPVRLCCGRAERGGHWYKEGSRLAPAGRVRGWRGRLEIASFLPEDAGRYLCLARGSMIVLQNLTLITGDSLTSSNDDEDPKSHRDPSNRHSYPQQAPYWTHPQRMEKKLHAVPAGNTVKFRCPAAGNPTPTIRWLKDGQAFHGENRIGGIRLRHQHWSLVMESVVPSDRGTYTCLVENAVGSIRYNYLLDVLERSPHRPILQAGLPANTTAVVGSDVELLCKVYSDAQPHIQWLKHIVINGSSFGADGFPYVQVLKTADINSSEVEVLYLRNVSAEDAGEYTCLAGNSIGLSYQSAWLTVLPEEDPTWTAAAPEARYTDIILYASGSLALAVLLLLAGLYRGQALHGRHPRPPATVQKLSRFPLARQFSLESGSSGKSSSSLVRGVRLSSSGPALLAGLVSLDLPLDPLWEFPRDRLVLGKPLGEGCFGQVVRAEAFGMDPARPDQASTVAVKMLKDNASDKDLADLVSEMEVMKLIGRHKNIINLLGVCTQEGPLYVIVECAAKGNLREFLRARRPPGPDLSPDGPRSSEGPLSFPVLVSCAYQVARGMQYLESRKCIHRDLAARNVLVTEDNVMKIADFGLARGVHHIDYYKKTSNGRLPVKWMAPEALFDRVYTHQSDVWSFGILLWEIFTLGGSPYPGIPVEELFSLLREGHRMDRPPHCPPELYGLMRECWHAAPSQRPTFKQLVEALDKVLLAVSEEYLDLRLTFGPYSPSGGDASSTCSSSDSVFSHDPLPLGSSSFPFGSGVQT

[11] = molecular target: GRK7 (Homo sapiens, UniProt Q8WTQ7)
GRK7, sequence (Q8WTQ7 whole entry): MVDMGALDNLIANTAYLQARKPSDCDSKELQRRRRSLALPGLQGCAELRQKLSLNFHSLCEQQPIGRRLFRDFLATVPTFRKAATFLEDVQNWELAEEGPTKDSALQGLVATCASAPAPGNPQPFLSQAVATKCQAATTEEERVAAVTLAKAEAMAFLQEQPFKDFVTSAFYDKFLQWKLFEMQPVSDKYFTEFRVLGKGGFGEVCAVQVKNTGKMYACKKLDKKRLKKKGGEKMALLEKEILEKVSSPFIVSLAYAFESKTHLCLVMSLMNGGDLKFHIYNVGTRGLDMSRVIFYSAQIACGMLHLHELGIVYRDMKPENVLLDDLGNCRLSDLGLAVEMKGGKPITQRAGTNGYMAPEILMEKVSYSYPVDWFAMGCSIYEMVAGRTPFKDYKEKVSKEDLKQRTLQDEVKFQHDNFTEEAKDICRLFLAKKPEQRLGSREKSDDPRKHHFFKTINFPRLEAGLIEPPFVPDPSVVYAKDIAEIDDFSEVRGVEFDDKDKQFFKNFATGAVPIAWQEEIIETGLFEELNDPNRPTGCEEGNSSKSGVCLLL

[12] = molecular target: GSK3B (Homo sapiens, UniProt P49841)
[13] = molecular target: MKNK2 (Homo sapiens, UniProt Q9HBH9)
MKNK2, sequence (Q9HBH9 whole entry): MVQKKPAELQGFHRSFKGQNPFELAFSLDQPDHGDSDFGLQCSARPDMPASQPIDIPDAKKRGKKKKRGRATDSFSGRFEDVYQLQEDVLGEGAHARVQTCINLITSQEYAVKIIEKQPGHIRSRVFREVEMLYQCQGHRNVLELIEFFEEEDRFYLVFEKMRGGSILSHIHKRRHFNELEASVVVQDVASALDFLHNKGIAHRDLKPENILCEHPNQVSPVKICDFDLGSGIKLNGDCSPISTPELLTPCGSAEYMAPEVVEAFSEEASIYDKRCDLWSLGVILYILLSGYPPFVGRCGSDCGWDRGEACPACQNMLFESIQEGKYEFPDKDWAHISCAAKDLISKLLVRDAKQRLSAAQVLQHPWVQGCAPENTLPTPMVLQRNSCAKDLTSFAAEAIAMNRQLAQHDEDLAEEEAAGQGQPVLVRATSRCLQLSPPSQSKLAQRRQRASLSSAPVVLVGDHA

[14] = molecular target: T3, MST2 (Homo sapiens, UniProt Q13188)
T3 construct: gene STK3

[15] = molecular target: MYLK4 (Homo sapiens, UniProt Q86YV6)
[16] = molecular target: PAK3 (Homo sapiens, UniProt O75914)
[17] = molecular target: PIK3CA(M1043I) (Homo sapiens, UniProt P42336, M1043I)
PIK3CA(M1043I), sequence (P42336 whole entry M1043I): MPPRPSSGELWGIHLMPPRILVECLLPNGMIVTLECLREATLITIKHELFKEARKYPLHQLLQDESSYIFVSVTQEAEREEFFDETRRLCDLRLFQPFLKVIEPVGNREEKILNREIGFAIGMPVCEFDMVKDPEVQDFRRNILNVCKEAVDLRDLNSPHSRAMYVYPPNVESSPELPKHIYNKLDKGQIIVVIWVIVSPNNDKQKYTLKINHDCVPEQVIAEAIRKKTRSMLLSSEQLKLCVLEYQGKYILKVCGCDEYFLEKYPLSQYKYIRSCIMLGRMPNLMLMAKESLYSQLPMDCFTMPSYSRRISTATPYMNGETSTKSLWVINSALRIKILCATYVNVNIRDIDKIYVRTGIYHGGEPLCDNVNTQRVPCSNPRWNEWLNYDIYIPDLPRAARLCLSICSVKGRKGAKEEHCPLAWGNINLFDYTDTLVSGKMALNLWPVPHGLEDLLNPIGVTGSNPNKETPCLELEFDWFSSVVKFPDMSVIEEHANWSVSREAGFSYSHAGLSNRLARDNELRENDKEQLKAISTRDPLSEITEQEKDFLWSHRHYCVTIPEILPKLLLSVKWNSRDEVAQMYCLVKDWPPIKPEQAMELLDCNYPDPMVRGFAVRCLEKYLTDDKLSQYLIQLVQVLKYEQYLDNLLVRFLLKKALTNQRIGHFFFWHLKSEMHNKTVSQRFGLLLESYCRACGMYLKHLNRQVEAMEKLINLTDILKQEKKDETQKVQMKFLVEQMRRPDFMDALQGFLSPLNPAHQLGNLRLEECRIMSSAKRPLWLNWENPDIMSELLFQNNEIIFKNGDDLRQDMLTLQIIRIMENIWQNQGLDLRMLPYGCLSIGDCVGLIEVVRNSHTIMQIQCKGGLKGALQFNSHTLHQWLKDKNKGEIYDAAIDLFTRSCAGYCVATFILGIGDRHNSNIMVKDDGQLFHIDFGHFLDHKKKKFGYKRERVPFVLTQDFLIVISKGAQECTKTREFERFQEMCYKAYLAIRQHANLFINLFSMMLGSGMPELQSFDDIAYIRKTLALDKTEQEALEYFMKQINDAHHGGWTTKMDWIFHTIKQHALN

[18] = molecular target: PIK3CD (Homo sapiens, UniProt O00329)
[19] = molecular target: RET(V804L) (Homo sapiens, UniProt P07949, V804L)
[20] = molecular target: TSSK1B (Homo sapiens, UniProt Q9BXA7)
[21] = molecular target: T4, ABL1(F317L)-nonphosphorylated (Homo sapiens, UniProt P00519, F317L)
T4 construct: nonphosphorylated

[22] = molecular target: CSNK2A1 (Homo sapiens, UniProt P68400)
[23] = molecular target: FGFR3(G697C) (Homo sapiens, UniProt P22607, G697C)
[24] = read-out: Percent control / Tirabrutinib
[25] = read-out: Percent control / Zanubrutinib
[26] = read-out: Percent control / Acalabrutinib
[27] = read-out: Percent control / Ibrutinib

EGFR(S752-I759del), sequence (P00533 with tags, fused parts or gaps DEL752-759): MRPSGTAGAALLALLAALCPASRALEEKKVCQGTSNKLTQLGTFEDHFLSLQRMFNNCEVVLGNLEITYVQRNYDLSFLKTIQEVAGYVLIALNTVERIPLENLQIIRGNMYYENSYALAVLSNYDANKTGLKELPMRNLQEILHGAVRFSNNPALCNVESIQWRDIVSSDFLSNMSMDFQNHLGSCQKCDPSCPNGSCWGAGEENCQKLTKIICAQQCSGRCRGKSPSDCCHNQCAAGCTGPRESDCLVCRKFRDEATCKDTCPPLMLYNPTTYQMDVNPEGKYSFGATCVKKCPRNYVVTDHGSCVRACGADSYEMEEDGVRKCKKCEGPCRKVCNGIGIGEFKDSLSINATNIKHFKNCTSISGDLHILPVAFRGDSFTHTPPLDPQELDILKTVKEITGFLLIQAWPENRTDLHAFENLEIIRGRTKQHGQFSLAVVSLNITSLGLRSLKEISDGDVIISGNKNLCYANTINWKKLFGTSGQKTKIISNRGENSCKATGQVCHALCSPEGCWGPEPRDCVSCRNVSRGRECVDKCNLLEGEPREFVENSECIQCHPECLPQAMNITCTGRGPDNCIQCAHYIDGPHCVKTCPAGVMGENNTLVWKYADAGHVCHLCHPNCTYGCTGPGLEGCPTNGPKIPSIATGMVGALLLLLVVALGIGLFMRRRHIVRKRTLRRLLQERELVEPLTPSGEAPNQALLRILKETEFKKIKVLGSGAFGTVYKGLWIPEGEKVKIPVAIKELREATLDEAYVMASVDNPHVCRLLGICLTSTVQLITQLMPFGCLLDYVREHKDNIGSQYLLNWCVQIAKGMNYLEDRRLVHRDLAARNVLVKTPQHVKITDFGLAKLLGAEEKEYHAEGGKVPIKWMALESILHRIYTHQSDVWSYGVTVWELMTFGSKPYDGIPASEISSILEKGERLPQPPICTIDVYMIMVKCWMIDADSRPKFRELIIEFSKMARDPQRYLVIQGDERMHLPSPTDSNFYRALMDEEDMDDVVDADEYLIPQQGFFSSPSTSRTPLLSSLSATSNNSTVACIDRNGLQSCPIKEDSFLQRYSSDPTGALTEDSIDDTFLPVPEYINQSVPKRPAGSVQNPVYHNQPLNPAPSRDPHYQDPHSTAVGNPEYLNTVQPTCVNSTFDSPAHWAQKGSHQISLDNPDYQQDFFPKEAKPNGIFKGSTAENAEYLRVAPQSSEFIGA

CC#CC(=O)N1CC[C@@H](n2c(=O)n(-c3ccc(Oc4ccccc4)cc3)c3c(N)ncnc32)C1 [Tirabrutinib]
remaining binding at 0.3 µM [1, 24]: 95%
remaining binding at 0.3 µM [2, 24]: 96%
remaining binding at 0.3 µM [3, 24]: 49%

C=CC(=O)N1CCC([C@@H]2CCNc3c(C(N)=O)c(-c4ccc(Oc5ccccc5)cc4)nn32)CC1 [Zanubrutinib]
remaining binding at 0.3 µM [4, 25]: 98%
remaining binding at 0.3 µM [5, 25]: 90%
remaining binding at 0.3 µM [6, 25]: 100%
remaining binding at 0.3 µM [7, 25]: 97%
remaining binding at 0.3 µM [8, 25]: 87%
remaining binding at 0.3 µM [9, 25]: 100%
remaining binding at 0.3 µM [10, 25]: 91%
remaining binding at 0.3 µM [11, 25]: 100%
remaining binding at 0.3 µM [12, 25]: 74%
remaining binding at 0.3 µM [13, 25]: 84%
remaining binding at 0.3 µM [14, 25]: 100%
remaining binding at 0.3 µM [15, 25]: 96%
remaining binding at 0.3 µM [16, 25]: 83%
remaining binding at 0.3 µM [17, 25]: 90%
remaining binding at 0.3 µM [18, 25]: 37%
remaining binding at 0.3 µM [19, 25]: 100%
remaining binding at 0.3 µM [20, 25]: 100%

CC#CC(=O)N1CCC[C@H]1c1nc(-c2ccc(C(=O)Nc3ccccn3)cc2)c2c(N)nccn12 [Acalabrutinib]
remaining binding at 0.3 µM [21, 26]: 78%
remaining binding at 0.3 µM [4, 26]: 84%
remaining binding at 0.3 µM [5, 26]: 92%
remaining binding at 0.3 µM [22, 26]: 99%
remaining binding at 0.3 µM [6, 26]: 86%
remaining binding at 0.3 µM [2, 26]: 97%
remaining binding at 0.3 µM [7, 26]: 99%
remaining binding at 0.3 µM [8, 26]: 93%
remaining binding at 0.3 µM [9, 26]: 96%
remaining binding at 0.3 µM [23, 26]: 79%
remaining binding at 0.3 µM [10, 26]: 91%
remaining binding at 0.3 µM [11, 26]: 74%
remaining binding at 0.3 µM [12, 26]: 97%
remaining binding at 0.3 µM [3, 26]: 83%
remaining binding at 0.3 µM [13, 26]: 93%
remaining binding at 0.3 µM [16, 26]: 77%
remaining binding at 0.3 µM [17, 26]: 90%
remaining binding at 0.3 µM [18, 26]: 88%
remaining binding at 0.3 µM [19, 26]: 99%
remaining binding at 0.3 µM [20, 26]: 93%

C=CC(=O)N1CCC[C@@H](n2nc(-c3ccc(Oc4ccccc4)cc3)c3c(N)ncnc32)C1 [Ibrutinib]
remaining binding at 0.3 µM [21, 27]: 54%
remaining binding at 0.3 µM [1, 27]: 98%
remaining binding at 0.3 µM [22, 27]: 90%
remaining binding at 0.3 µM [23, 27]: 77%
remaining binding at 0.3 µM [14, 27]: 85%
remaining binding at 0.3 µM [15, 27]: 94%
